Experimental data as given in ChEMBL document CHEMBL1156257, “Antibacterial effect of some benzopyrone derivatives” (2010).

Tests used:
Type in all cases: functional
[1] = tested on: Escherichia coli; assay: Antibacterial activity against Escherichia coli XL-1 blue assessed as decrease in survival at 50 x 10^-6 M by turbidimetric method
[2] = tested on: Staphylococcus capitis; assay: Antibacterial activity against Staphylococcus capitis ATCC 2784 assessed as decrease in survival at 50 x 10^-6 M by turbidimetric method
[3] = tested on: Staphylococcus capitis; assay: Antibacterial activity against Staphylococcus capitis ATCC 2784 assessed as decrease in survival at 0.5 M by turbidimetric method
[4] = tested on: Staphylococcus capitis; assay: Antibacterial activity against Staphylococcus capitis ATCC 2784 assessed as decrease in survival at 1.3 M by turbidimetric method

SMILES	Activity [1] [%]	Activity [2] [%]	Activity [3] [%]	Activity [4] [%]
COc1c(/C=N/CCC/N=C/c2c(O)cc3oc(C)cc(=O)c3c2OC)c(O)cc2oc(C)cc(=O)c12	30	55	–	–
Cc1cc(=O)c2c(O)c(/C=N/CCC/N=C/c3c(O)cc4oc(C)cc(=O)c4c3O)c(O)cc2o1	35	70	–	–
COc1c(/C=N/CC/N=C/c2c(O)cc3oc(C)cc(=O)c3c2OC)c(O)cc2oc(C)cc(=O)c12	54	40	–	–
Cc1cc(=O)c2c(O)c(/C=N/CC/N=C/c3c(O)cc4oc(C)cc(=O)c4c3O)c(O)cc2o1	60	50	–	–
CN(C)C=O [DIMETHYLFORMAMIDE]	–	–	10	80
